Results reported in patent US20060069132A1, “Azolecarboxamide herbicides” (priority 2004, published 2006).
Like-named read-outs stand apart in the source and are kept apart here.

Experiments:
[1] = test system: common ragweed; experiment: Test C pre-/postemergence herbicide test; assay type: in vivo, Ambrosia elatior; design: key to Plant response rating, Ragweed: 0 = no effect, 100 = complete control
Method in brief: (§1)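 Pre/post spray; non-phytotoxic solvent + surfactant. Post-timing 1–4 leaves, 2–18 cm. Read-out: visual % control vs untreated, day 12–14, greenhouse.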

[2] = test system: kochia; experiment: Test C pre-/postemergence herbicide test; assay type: in vivo, Kochia scoparia
Method in brief: as §1

[3] = test system: barnyardgrass; experiment: Test C flooded paddy test; assay type: in vivo, Echinochloa crus-galli; conditions: Echinochloa crus-galli
Method in brief: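 Postemergence sprays were applied to plants 2 to 18 cm tall (1- to 4-leaf stage); in the flooded paddy test, barnyardgrass was grown to the 2-leaf stage. After 12 to 14 days in a greenhouse, injury was visually rated against untreated controls on a 0–100 scale (100 = complete control).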

[4] = test system: pigweed; experiment: Test C pre-/postemergence herbicide test; assay type: in vivo, Amaranthus retroflexus
Method in brief: as §1

[5] = test system: large crabgrass; experiment: Test C pre-/postemergence herbicide test; assay type: in vivo, Digitaria sanguinalis
Method in brief: as §1

[6] = test system: rice; experiment: Test B pre-/postemergence herbicide test; assay type: in vivo, Oryza sativa
Method in brief: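 Plants compared with untreated controls 13–15 days post-treatment and given a visual 0–100 injury score. Applications: preemergence to seeds; postemergence at 1- to 4-leaf (2–18 cm); paddy species flooded, 2-leaf stage. Vehicle non-phytotoxic, surfactant included.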

[7] = test system: giant foxtail; experiment: Test A pre-/postemergence herbicide test; assay type: in vivo, Setaria faberi; conditions: for pest or weed control at 500 g/ha / pest or weed control at 2000 g/ha: Setaria faberi, 240 h
Method in brief: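 Greenhouse injury scoring (0–100, complete control = 100) at approximately ten days follows simultaneous pre- and postemergence application. Soil received a directed spray after seeding; seedlings of 2–10 cm at the one- to two-leaf stage were sprayed to runoff.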

[8] = test system: goosegrass; experiment: Test C pre-/postemergence herbicide test; assay type: in vivo, Eleusine indica
Method in brief: as §1

[9] = test system: velvetleaf; experiment: Test C pre-/postemergence herbicide test; assay type: in vivo, Abutilon theophrasti
Method in brief: as §1

[10] = Preemergence, 500 g ai/ha, scale 0 to 100, 0 no effect, 100 complete control
[11] = 62 g ai/ha, preemergence, scale 0 to 100
[12] = 125 g ai/ha, scale 0 (no effect) to 100 (complete control), visual, 12 to 14 days, preemergence
[13] = 250 g ai/ha, scale 0-100, preemergence
[14] = 500 g ai/ha, scale 0 to 100 (0 no effect, 100 complete control), visual, 12 to 14 days, preemergence

SMILES: CCn1nc(C(C)(C)C)cc1C(=O)Nc1cccc2c1CN(C)C2=O [Compound 55, N-(2,3-dihydro-2-methyl-1-oxo-1H-isoindol-4-yl)-3-(1,1-dimethylethyl)-1-ethyl-1H-pyrazole-5-carboxamide]
- Plant response rating (0 = no effect, 100 = complete control), Ragweed ([1]; 62 g ai/ha, preemergence): 0
- pest or weed control at 125 g/ha ([1]; Ambrosia artemisiifolia, pre-emergence, 125 g ai/ha, scale 0 (no effect) to 100 (complete control), visual, 12 to 14 days, read-out: Plant response rating, Ragweed): 0%
- pest or weed control at 250 g/ha ([1]; Ambrosia artemisiifolia, pre-emergence, 250 g ai/ha, scale 0 to 100 (0 no effect, 100 complete control), visual, 12 to 14 days, read-out: Plant response rating, Ragweed): 0%
- Ragweed plant response rating [1, 10]: 80
- Plant response rating (0 = no effect, 100 = complete control), Kochia ([2]; 62 g ai/ha, preemergence): 25
- pest or weed control at 125 g/ha ([2]; Bassia scoparia, pre-emergence, 125 g ai/ha, scale 0 (no effect) to 100 (complete control), visual, 12 to 14 days, read-out: Plant response rating, Kochia): 80%
- pest or weed control at 250 g/ha ([2]; Bassia scoparia, pre-emergence, 250 g ai/ha, scale 0 to 100 (0 no effect, 100 complete control), visual, 12 to 14 days, read-out: Plant response rating, Kochia): 100%
- Kochia plant response rating [2, 10]: 100
- pest or weed control at 62 g/ha ([3]; 62 g ai/ha, scale 0 to 100 (0 no effect, 100 complete control), read-out: Barnyardgrass plant response rating): 0%
- pest or weed control at 125 g/ha ([3]; 125 g ai/ha, scale of 0 to 100, 0 is no effect, 100 is complete control, read-out: Barnyardgrass plant response rating): 0%
- pest or weed control at 250 g/ha ([3]; 250 g ai/ha, scale of 0 to 100, 0 is no effect, 100 is complete control, read-out: Barnyardgrass plant response rating): 25%
- pest or weed control at 500 g/ha ([3]; 500 g ai/ha, visual rating after 12 to 14 days, scale 0 to 100 (0 no effect, 100 complete control), read-out: Plant response rating, Barnyardgrass): 75%
- Plant response rating (0 = no effect, 100 = complete control), Pigweed ([4]; 62 g ai/ha, preemergence): 95
- pest or weed control at 125 g/ha ([4]; Amaranthus retroflexus, pre-emergence, 125 g ai/ha, scale 0 (no effect) to 100 (complete control), visual, 12 to 14 days, read-out: Plant response rating, Pigweed): 95%
- pest or weed control at 250 g/ha ([4]; Amaranthus retroflexus, pre-emergence, 250 g ai/ha, scale 0 to 100 (0 no effect, 100 complete control), visual, 12 to 14 days, read-out: Plant response rating, Pigweed): 95%
- Pigweed plant response rating [4, 10]: 95
- Plant response rating (0 = no effect, 100 = complete control), Crabgrass, Large ([5]; 62 g ai/ha, preemergence): 15
- pest or weed control at 125 g/ha ([5]; Digitaria sanguinalis, pre-emergence, 312 h, 125 g ai/ha, scale 0 (no effect) to 100 (complete control), visual, 12 to 14 days, read-out: Plant response rating, Crabgrass, Large): 90%
- pest or weed control at 250 g/ha ([5]; Digitaria sanguinalis, pre-emergence, 312 h, 250 g ai/ha, scale 0 to 100 (0 no effect, 100 complete control), visual, 12 to 14 days, read-out: Plant response rating, Crabgrass, Large): 95%
- Crabgrass, Large plant response rating [5, 10]: 100
- plant injury at 125 g/ha ([6]; Oryza sativa, pre-emergence, 336 h, preemergence, 125 g ai/ha, 0 to 100 scale, 0 is no effect, 100 is complete control, read-out: Plant response rating, Rice): 50%
- Rice plant response rating ([6]; Preemergence, 500 g ai/ha, scale 0 to 100): 70
- pest or weed control at 500 g/ha ([7]; post-emergence, Postemergence, 500 g ai/ha, 0 to 100 scale, 0 no effect, 100 complete control, read-out: Plant response rating, Foxtail, Giant): 30%
- pest or weed control at 2000 g/ha ([7]; post-emergence, Postemergence, 2000 g ai/ha, 0 to 100 scale, 0 no effect, 100 complete control, read-out: Plant response rating, Foxtail, Giant): 80%
- pest or weed control at 500 g/ha ([7]; pre-emergence, Preemergence, 500 g ai/ha, visual rating, 0 to 100 scale (0 no effect, 100 complete control), read-out: Foxtail, Giant plant response rating): 60%
- pest or weed control at 2000 g/ha ([7]; pre-emergence, Preemergence, 2000 g ai/ha, 0 to 100 scale, 0 no effect, 100 complete control, read-out: Foxtail, Giant plant response rating): 100%
- Plant response rating (0 = no effect, 100 = complete control), Goosegrass ([8]; 62 g ai/ha, preemergence): 0
- pest or weed control at 125 g/ha ([8]; Eleusine indica, pre-emergence, 312 h, 125 g ai/ha, scale 0 (no effect) to 100 (complete control), visual, 12 to 14 days, read-out: Plant response rating, Goosegrass): 50%
- pest or weed control at 250 g/ha ([8]; Eleusine indica, pre-emergence, 312 h, 250 g ai/ha, scale 0 to 100 (0 no effect, 100 complete control), visual, 12 to 14 days, read-out: Plant response rating, Goosegrass): 75%
- Goosegrass plant response rating [8, 10]: 95
- Plant response rating (0 = no effect, 100 = complete control), Velvetleaf ([9]; 62 g ai/ha, preemergence): 0
- pest or weed control at 125 g/ha ([9]; Abutilon theophrasti, pre-emergence, 125 g ai/ha, scale 0 (no effect) to 100 (complete control), visual, 12 to 14 days, read-out: Plant response rating, Velvetleaf): 0%
- pest or weed control at 250 g/ha ([9]; Abutilon theophrasti, pre-emergence, 250 g ai/ha, scale 0 to 100 (0 no effect, 100 complete control), visual, 12 to 14 days, read-out: Plant response rating, Velvetleaf): 15%
- Velvetleaf plant response rating [9, 10]: 100

SMILES: CCNC(=O)c1cccc(NC(=O)c2sc(C(C)(C)C)nc2CC)n1 [Compound 213]
- Plant response rating, Ragweed [1, 11]: 0
- Plant response rating, Ragweed [1, 12]: 0
- Plant response rating, Ragweed [1, 13]: 0
- Plant response rating, Ragweed [1, 14]: 0
- Plant response rating, Kochia [2, 12]: 85
- Plant response rating, Kochia [2, 13]: 100
- Plant response rating, Kochia [2, 14]: 100
- Plant response rating, Pigweed [4, 11]: 80
- Plant response rating, Pigweed [4, 12]: 100
- Plant response rating, Pigweed [4, 13]: 100
- Plant response rating, Pigweed [4, 14]: 100
- Plant response rating, Crabgrass, Large [5, 11]: 0
- Plant response rating, Crabgrass, Large [5, 12]: 50
- Plant response rating, Crabgrass, Large [5, 13]: 100
- Plant response rating, Crabgrass, Large [5, 14]: 100
- Rice plant response rating (0 to 100 scale) ([6]; 125 g ai/ha, 0 = no effect, 100 = complete control, preemergence): 0
- Plant response rating, Rice ([6]; 500 g ai/ha, visual rating, 0 = no effect, 100 = complete control, preemergence): 40
- Foxtail, Giant plant response rating ([7]; Postemergence, 500 g ai/ha, 0 to 100 scale, 0 no effect, 100 complete control): 20
- Plant response rating, Foxtail, Giant ([7]; Postemergence, 2000 g ai/ha, 0 to 100 scale, 0 no effect, 100 complete control): 25
- Foxtail, Giant plant response rating ([7]; Preemergence, 2000 g ai/ha, visual rating, 0 to 100 scale (0 no effect, 100 complete control)): 85
- Foxtail, Giant plant response rating ([7]; preemergence, 500 g ai/ha, visual injury, 0 to 100 scale (0 no effect, 100 complete control)): 60
- Plant response rating, Goosegrass [8, 11]: 0
- Plant response rating, Goosegrass [8, 12]: 60
- Plant response rating, Goosegrass [8, 13]: 80
- Plant response rating, Goosegrass [8, 14]: 90
- Plant response rating, Velvetleaf [9, 11]: 0
- Plant response rating, Velvetleaf [9, 12]: 0
- Plant response rating, Velvetleaf [9, 13]: 0
- Plant response rating, Velvetleaf [9, 14]: 0
